Values of other authors in patent publication US20250176603A1, “Vegetable-Based Food Product” (L-CONE SP. Z O. O., priority 2023, published 2025).
“Also recorded” adds a separate entry of the source. Each block holds one molecule with its values, some of them ahead of it.

Key:
DSS-induced colitis = DSS-induced colitis model
[1] = test system: lipopolysaccharide (LPS)-activated BV2 microglia
[2] = test system: acetic acid-induced ulcerative colitis; details: oral administration
[3] = test system: diethylnitrosamine-induced hepatocarcinogenesis; details: rats
TPOAb antibody = details: 200 ug for 3 months
[4] = test system: pancreatic cancer patients resistant to gemcitabine chemotherapy; details: 8 g/day in a divided dose for 11 months
[5] = test system: prostate cancer patients undergoing radiotherapy
Ehrlich ascites tumor = details: mice
[6] = in vivo

Structure (SMILES): O=C1c2c(O)cc(O)cc2O[C@H](c2ccc(O)c(O)c2)[C@H]1O [taxifolin]
- NF-κB activation (DSS-induced colitis): reduce

Structure (SMILES): O=CC=Cc1ccccc1 [Cinnamaldehyde]
- tau protein aggregation (tau protein): potential in inhibiting
- production and expression of NO, IL-1b, IL-6 and TNF-a [1]: decrease

Structure (SMILES): COc1cc(C2Oc3cc([C@H]4Oc5cc(O)cc(O)c5C(=O)[C@@H]4O)ccc3OC2CO)ccc1O (some centres unmarked) [silybin]
- IL-6 and TNF-α activity [2]: significant reduction

Structure (SMILES): C=CCC(=NOS(=O)(=O)O)S[C@@H]1O[C@H](CO)[C@@H](O)[C@H](O)[C@H]1O (stereo in doubt) [Sinigrin]
- diethylnitrosamine-induced hepatocarcinogenesis [3]: inhibited

Structure (SMILES): C[Se]CC[C@H](N)C(=O)O [selenomethionine]
- TPOAb antibody levels (TPOAb antibody): significantly reduced

Structure (SMILES): O=[Se](=O)(O)O [sodium selenate]
- TPOAb antibody levels (TPOAb antibody): significantly reduced

Structure (SMILES): COc1cc(/C=C/C(=O)CC(=O)/C=C/c2ccc(O)c(OC)c2)ccc1O [curcumin]
- chances of longer survival [4]: significantly increased; also recorded: increased significantly
- radiation side effects and therapeutic efficacy [5]: alleviate the side effects of radiation and enhance its therapeutic efficacy; also recorded: mitigate radiation side effects and enhance therapeutic efficacy

Structure (SMILES): C=CCN=C=S [allyl isothiocyanate]
- cytotoxic effect (lung cancer cells): cytotoxic effect
- Ehrlich ascites tumor growth (Ehrlich ascites tumor): inhibited
- cytotoxic effect (bladder): cytotoxic effect

Structure (SMILES): O=C(/C=C/C=C/c1ccc2c(c1)OCO2)N1CCCCC1 [piperine]
- cytotoxic effects (K-562 cells): strong cytotoxic effects

- level of bioavailability [6]: 74%
Structure (SMILES): C[S+]([O-])CCCCN=C=S (centres unmarked) [Sulforaphane]
